Assay results: patent US20100048731A1, “Hydroxylated Long-Chain Resveratrol Derivatives Useful as Neurotrophic Agents” (Centre National de la Recherche Scientifique(CNRS), priority 2006, published 2010)
Like-named read-outs stand apart in the source and are kept apart here.

What was measured:
[1] = test system: microglial cell cultures treated with LPS; experiment: TNF-α release (ELISA) in LPS-activated microglial cell cultures; format: cell-based; conditions: read-out: decrease in TNF-α production compared to control values
Description: (§1) The experiments carried out thus relate to the capacity of RFA molecules (MRFA and DMRFA) to inhibit, in activated microglia, the release of nitrites and TNF-α.
The expression of TNF-α represents a microglial activation parameter often analyzed in the literature. […] A 24-hour activation by LPS leads to a strong increase in expression, detectable by ELISA.
In the experiments performed, TNF-α concentrations were measured after 24 hours of activation in microglial cell cultures treated with 0.01 μg/ml of LPS in the presence of MRFA-10, MRFA-12, MRFA-14, MRFA-16, MRFA-18, DMRFA-10, DMRFA-12, DMRFA-14, DMRFA-16, DMRFA-18, M-resveratrol, DM-resveratrol and resveratrol at concentrations of 5×10^−6 M, 10^−6 M and 10^−7 M.

[2] = test system: microglial cell cultures treated with LPS; experiment: Nitrite release (Griess method) in LPS-activated microglial cell cultures; format: cell-based; conditions: LPS 0.01 μg/ml; for decrease in nitrite production compared to the control values: three independent experiments, concentration not stated (5×10^-6, 10^-6 and 10^-7 M tested)
From the text: as §1
The activity of NO-synthase type II (NOS II) represents a microglial activity parameter often analyzed in the literature. This enzyme is responsible for the synthesis of nitric oxide radicals under conditions of inflammatory activation. Microglia at rest only express levels at the immunoblotting detection limit. Activation of 24 to 48 hours leads to a strong increase in this expression. The product of this enzyme, NO, quickly breaks down in culture to form nitrites.
In the experiments performed, NO2^− concentrations were measured after 24 hours and 48 hours of activation in microglial cell cultures treated with 0.01 μg/ml of LPS, in the presence of products RFA-12, MRFA-10, MRFA-12, MRFA-14, MRFA-16, MRFA-18, DMRFA-10, DMRFA-12, DMRFA-14, DMRFA-16, DMRFA-18, M-resveratrol, DM-resveratrol and resveratrol at concentrations of 5×10^−6 M, 10^−6 M and 10^−7 M.

[3] = DPPH test (antioxidant capacity); format: physicochemical; conditions: after 3 hours of incubation (time stated for the hybrid molecules); read-out: IC50 (concentration at which 50% of the radicals are reduced), DPPH test
Description: The DPPH [(2,2′-di(4-tert-octylphenyl)1-picrylhydrazyl] test was used to determine the antioxidant capacity of our compounds [9]. DPPH is a stabilized radical that absorbs at 517 nm (violet color). When it is placed in the presence of an antioxidant molecule, the latter will react with the radical. Thus, a decrease in absorbance can be observed. Antioxidant capacity thus results in a decrease in absorbance at 517 nm.
a) Implementation of the DPPH Test
On a 96-well ELISA plate, add: • 100 μl of the various solutions at the following concentrations: 10 mM, 5 mM, 2.5 mM, 1 mM, 0.5 mM, 0.1 mM, 0.01 mM and 0.001 mM; • 100 μl of a 400 μM solution of DPPH in ethanol.
After incubating for 45 minutes, 2 hours and 3 hours, the result is given by measuring optical density at […] using a spectrophotometer.
The result is expressed as IC50, which is the concentration at which 50% of the radicals are reduced by the antioxidant molecule.
The inventors tested resveratrol, as a positive control, as well as RFA-10, RFA-12 and RFA-16.

[4] = ABTS test (antioxidant capacity, hydroxyl radicals from the Fenton reaction); format: physicochemical; conditions: after 2 hours of incubation
From the text: In light of the results obtained with the DPPH test, the use of the ABTS ([2,2′-azino-bis-(3-ethylbenzthiazoline-6-sulfonic acid)]) test was considered, [11], [12]. The ABTS test is more sensitive insofar as it uses less encumbered hydroxyl radicals.
The ABTS molecule reacts with the hydroxyl (OH) radicals generated in the medium by the Fenton reaction to form a cation radical, ABTS^+ (green color), which is absorbent at 405 nm. Thus, when it is placed in the presence of an antioxidant molecule, one capable of reducing hydroxyl radicals, a reduction in absorbance at 405 nm can be observed.
On a 96-well ELISA plate, add: • 180 μl of a 50/50 water/ethanol mixture; • 30 μl of a 1 mM aqueous ABTS solution; • 30 μl of a 1 mM aqueous FeSO4 solution; • 30 μl of the product to be tested at the following concentrations: 10 mM, 5 mM, 2.5 mM, 1 mM, 0.5 mM, 0.1 mM, 0.01 mM and 0.001 mM; • 30 μl of a 100 mM aqueous H2O2 solution.
After incubating for 45 minutes, 1 hour and 2 hours, the result is given by measuring optical density at 405 nm using a spectrophotometer.
In order to maximally reduce solubility problems, RFA-10 was tested. Resveratrol was again used as a positive control.

neural stem cells [5] = experiment: Neural stem cell proliferation; format: cell-based, mouse; conditions: 10^-6 M; cultured for 5 days
Description: (§2) Neurospheres are obtained from mouse embryo telencephalon cells cultivated in a defined medium containing 20 ng/ml EGF. After dissociation, the spheres proliferate for 3 days in the presence of EGF (20 ng/ml) during the so-called proliferation phase.
1. RFA-12 induces the differentiation of neural stem cells into neurons. […] However, if the neurospheres are treated with RFA-12 at a concentration of 10^−6 M to 10^−8 M, an increase in the number of neurons compared to the control (untreated cells) is observed. At concentrations of 10^−6 M, 10^−7 M and 10^−8 M we can observe a 120%, 90% and 80% increase, respectively, in the neuron population compared to the control fixed at 100%. […] In order to see whether RFA and its analogues also act on neural stem cell proliferation, these cells are dissociated and then cultured in the presence of RFA (10^−6 M and 10^−8 M) for 5 days, and then the number of living cells and their size and morphology are recorded.

neural stem cells [6] = experiment: Differentiation of neural stem cells (neurospheres) into neurons, by immunocytochemistry; format: cell-based, mouse; conditions: for increase in the neuron population compared to the control fixed at 100%: 3 days of differentiation
Description: as §2
The spheres are then collected and deposited on an poly-ornithine support in a defined medium in the presence of 2 ng/ml EGF. Under these conditions, the spheres adhere to the support and differentiate. The compounds to be tested, RFA-12 and its analogues, dissolved beforehand in ethanol, are added immediately after the deposit of the neurospheres at various concentrations ranging from 10^−5 M to 10^−9 M. The control cultures are treated with a negative control (ethanol) and a positive control (retinoic acid).
To screen our compounds we performed a double labeling, namely for neurons and for astrocytes.
For the detection of astrocytes, a secondary antibody coupled to a fluorochrome derived from rhodamine, Alexa488 (green), was used.
In order to be able to quantify the results, the nuclei are marked by an intercalating agent, TO-PRO (blue). The cultures are then observed under a confocal microscope.

[7] = LPS 0.01 μg/ml, 24 hours of activation, compound at 5×10^-6 M

Row | Structure (SMILES) | inhibition at 5 µM [1, 7] | decrease in nitrite production compared to the control values [2] | also measured
1 | COc1ccc(/C=C/c2cc(OC)cc(OC)c2)cc1 [M-resveratrol, reference compound] | – | – | inhibition at 5 µM ([1]; 24 h): 20%
2 | COc1ccc(/C=C/c2cc(OC)c(CCCCCCCCCCCCCCO)c(OC)c2)cc1 [MRFA-14, (E)-14-(4-(4-methoxystyryl)-2,6-dimethoxyphenyl)tetradecan-1-ol] | 20 to 40% | – | –
3 | COc1ccc(/C=C/c2cc(OC)c(CCCCCCCCCCO)c(OC)c2)cc1OC [DMRFA-10] | 40% | 20% | –
4 | COc1ccc(/C=C/c2cc(OC)c(CCCCCCCCCCCCO)c(OC)c2)cc1 [MRFA-12] | 20 to 40% | – | –
5 | COc1ccc(/C=C/c2cc(OC)c(CCCCCCCCCCO)c(OC)c2)cc1 [MRFA-10] | 20 to 40% | 20% | –
6 | Oc1ccc(/C=C/c2cc(O)cc(O)c2)cc1 [resveratrol] | 30% | 20% | IC50 [3]: 10 µM; IC50 [4]: 30 µM
7 | OCCCCCCCCCCCCc1c(O)cc(/C=C/c2ccc(O)cc2)cc1O [RFA-12] | 40% | – | decrease in nitrite levels ([2]; compound at 5×10^-6 M): 50%; effect on neural stem cell proliferation (neural stem cells [5]): inhibits the proliferation of neural stem cells; differentiation of neural stem cells, result in words (neural stem cells [6]; 10^-5 M): does not induce differentiation due to toxicity; increase in the neuron population compared to the control fixed at 100% (neural stem cells [6]; 10^-6 M): 120%; increase in the neuron population compared to the control fixed at 100% (neural stem cells [6]; 10^-7 M): 90%; increase in the neuron population compared to the control fixed at 100% (neural stem cells [6]; 10^-8 M): 80%; differentiation of neural stem cells, result in words (neural stem cells [6]; 10^-9 M): only weak activity
8 | COc1ccc(/C=C/c2cc(OC)c(CCCCCCCCCCCCO)c(OC)c2)cc1OC [DMRFA-12] | 40% | – | –
